Results: paper PMC5826766 (Molecular pharmaceutics, 2018)

Target: hPHT1 (human peptide/histidine transporter 1, SLC15A4) (Homo sapiens, UniProt Q8N697, L14A/L15A/L318A/V319A)
Assay: inhibition of MDP uptake in hPHT1mut cells at […], mock-subtracted
Type: cell-based
Settings: read-out: % inhibition at 2 mM

Sequence of hPHT1 (human peptide/histidine transporter 1, SLC15A4) (Q8N697 whole entry L14A/L15A/L318A/V319A): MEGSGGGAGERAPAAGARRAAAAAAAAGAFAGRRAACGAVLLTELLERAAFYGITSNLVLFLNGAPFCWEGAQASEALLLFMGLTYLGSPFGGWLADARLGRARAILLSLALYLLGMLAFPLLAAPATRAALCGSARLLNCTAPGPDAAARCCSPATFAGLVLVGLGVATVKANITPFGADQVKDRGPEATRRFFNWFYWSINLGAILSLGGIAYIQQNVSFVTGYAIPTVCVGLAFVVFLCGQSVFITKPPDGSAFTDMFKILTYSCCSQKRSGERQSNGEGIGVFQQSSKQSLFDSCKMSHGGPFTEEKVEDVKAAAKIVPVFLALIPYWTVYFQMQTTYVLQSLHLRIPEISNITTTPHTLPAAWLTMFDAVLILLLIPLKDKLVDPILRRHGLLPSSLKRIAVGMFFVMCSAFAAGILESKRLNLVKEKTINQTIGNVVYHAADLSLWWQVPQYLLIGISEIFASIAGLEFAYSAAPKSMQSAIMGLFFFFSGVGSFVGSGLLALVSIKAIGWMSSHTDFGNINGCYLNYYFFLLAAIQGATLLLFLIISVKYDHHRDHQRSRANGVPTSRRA

Question: For `CC1=C(C(=O)O)N2C(=O)[C@@H](NC(=O)[C@H](N)C3=CCC=CC3)[C@H]2SC1` [cephradine], which inhibition at 2000 µM is on record?
Answer: 70 to 85%

Question: With `NCCCC[C@H](N[C@@H](CCc1ccccc1)C(=O)O)C(=O)N1CCC[C@H]1C(=O)O` [lisinopril] as the compound, how does the inhibition at 2000 µM read?
Answer: 70 to 85%

Question: `C[C@H](CS)C(=O)N1CCC[C@H]1C(=O)O` [captopril] was tested. Which inhibition at 2000 µM did it give?
Answer: 70 to 85%

Question: With `CC1=C(C(=O)O)N2C(=O)[C@@H](NC(=O)[C@H](N)c3ccc(O)cc3)[C@H]2SC1` [cefadroxil] as the compound, how does the inhibition at 2000 µM read?
Answer: 70 to 85%
